Values joined by “and” are separate entries in the source; they are usually repeats but may differ in a detail not shown here. Identical values can stand only once. Inconclusive results and toxic doses are left out.

This test concerns L1210 leukemia ip in BDF1 mice, survival T/C. Put plainly: NCI In Vivo Anticancer Drug Screen. Data for tumor model L1210 Leukemia (intraperitoneal) in B6D2F1 (BDF1) mice. The note with it: endpoint: mean survival time, higher = longer survival. In short, it runs like this:
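Mice bearing the transplanted tumor received compound or vehicle. Survival of the treated group was divided by that of the vehicle-treated control group to give the ratio.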

The mark [1] stands for this setting: dose: 100.0 mg/kg/injection, schedule: Q01DX001 (ip), vehicle: carboxymethylcellulose (CMC).
The mark [2] stands for this setting: dose: 200.0 mg/kg/injection, schedule: Q01DX001 (ip), vehicle: carboxymethylcellulose (CMC).
[3] abbreviates: dose: 400.0 mg/kg/injection, schedule: Q01DX001 (ip), vehicle: carboxymethylcellulose (CMC).
Setting [4] is: dose: 100.0 mg/kg/injection, schedule: Q01DX001 (ip), vehicle: saline.
[5] abbreviates: dose: 100.0 mg/kg/injection, schedule: Q01DX009 (ip), vehicle: Klucel (hydroxypropylcellulose) (HPC).
The mark [6] stands for this setting: dose: 200.0 mg/kg/injection, schedule: Q01DX001 (ip), vehicle: saline.
The mark [7] stands for this setting: dose: 200.0 mg/kg/injection, schedule: Q01DX009 (ip), vehicle: Klucel (hydroxypropylcellulose) (HPC).
Where [8] appears, read: dose: 400.0 mg/kg/injection, schedule: Q01DX001 (ip), vehicle: saline.
The mark [9] stands for this setting: dose: 400.0 mg/kg/injection, schedule: Q01DX009 (ip), vehicle: Klucel (hydroxypropylcellulose) (HPC).
Setting [10] is: dose: 100.0 mg/kg/injection, schedule: Q01DX009 (ip), vehicle: saline with Tween-80.
Where [11] appears, read: dose: 200.0 mg/kg/injection, schedule: Q01DX009 (ip), vehicle: saline with Tween-80.
The mark [12] stands for this setting: dose: 400.0 mg/kg/injection, schedule: Q01DX009 (ip), vehicle: saline with Tween-80.

Regarding `NC(CSCc1ccc(N(CCCl)CCCl)cc1)C(=O)O` (stereo unspecified), the T/C was 124 % of control (dose: 2.5 mg/kg/injection, schedule: Q01DX Z (ip), vehicle: carboxymethylcellulose (CMC)); 112 % of control (dose: 4.0 mg/kg/injection, schedule: Q01DX Z (ip), vehicle: other); 109 % of control (dose: 7.0 mg/kg/injection, schedule: Q01DX009 (ip), vehicle: saline); 111 % of control (dose: 7.0 mg/kg/injection, schedule: Q01DX Z (ip), vehicle: saline); 87 % of control (dose: 10.0 mg/kg/injection, schedule: Q01DX001 (ip), vehicle: carboxymethylcellulose (CMC)); 157 % of control (dose: 10.0 mg/kg/injection, schedule: Q01DX Z (ip), vehicle: carboxymethylcellulose (CMC)). The T/C by setting is: (dose: 11.0 mg/kg/injection, schedule: Q01DX009 (ip), vehicle: saline) 103 % of control; (dose: 11.0 mg/kg/injection, schedule: Q01DX Z (ip), vehicle: saline) 118 % of control; (dose: 16.0 mg/kg/injection, schedule: Q01DX009 (ip), vehicle: saline) 111 % of control; (dose: 16.0 mg/kg/injection, schedule: Q01DX Z (ip), vehicle: saline) 114 % of control; (dose: 20.0 mg/kg/injection, schedule: Q01DX Z (ip), vehicle: carboxymethylcellulose (CMC)) 152 % of control and 168 % of control; (dose: 24.0 mg/kg/injection, schedule: Q01DX009 (ip), vehicle: saline) 103 % of control. The T/C reads like this: (dose: 24.0 mg/kg/injection, schedule: Q01DX Z (ip), vehicle: saline) 124 % of control; (dose: 30.0 mg/kg/injection, schedule: Q01DX Z (ip), vehicle: other) 123 % of control; (dose: 32.0 mg/kg/injection, schedule: Q01DX009 (ip), vehicle: saline) 113 % of control; (dose: 40.0 mg/kg/injection, schedule: Q01DX001 (ip), vehicle: carboxymethylcellulose (CMC)) 95 % of control; (dose: 40.0 mg/kg/injection, schedule: Q01DX Z (ip), vehicle: carboxymethylcellulose (CMC)) 100 % of control; (dose: 80.0 mg/kg/injection, schedule: Q01DX001 (ip), vehicle: carboxymethylcellulose (CMC)) 91 % of control.

Take `CCOC(=O)CCN1CCOCC1`: the T/C is 100 % of control (dose: 100.0 mg/kg/injection, schedule: Q01DX009 (ip), vehicle: saline); 111 % of control (dose: 100.0 mg/kg/injection, schedule: Q04DX003 (ip), vehicle: saline); 101 % of control (dose: 200.0 mg/kg/injection, schedule: Q01DX009 (ip), vehicle: saline); 101 % of control (dose: 200.0 mg/kg/injection, schedule: Q04DX003 (ip), vehicle: saline); 111 % of control (dose: 400.0 mg/kg/injection, schedule: Q01DX009 (ip), vehicle: saline); 101 % of control (dose: 400.0 mg/kg/injection, schedule: Q04DX003 (ip), vehicle: saline).

Take `O=C1c2cccc(S(=O)(=O)O)c2C(=O)c2c1cccc2S(=O)(=O)O`: the T/C runs as follows: (dose: 50.0 mg/kg/injection, schedule: Q01DX001 (ip), vehicle: carboxymethylcellulose (CMC)) 109 % of control; under setting [1], 111 % of control; under setting [2], 109 % of control; under setting [3], 103 % of control.

As for `Cc1ccc2c(ccc(/C=C/c3ccc(O)c4ccccc34)[n+]2C)c1`, the T/C is 95 % of control (dose: 75.0 mg/kg/injection, schedule: Q01DX001 (ip), vehicle: carboxymethylcellulose (CMC)); 97 % of control (dose: 150.0 mg/kg/injection, schedule: Q01DX001 (ip), vehicle: carboxymethylcellulose (CMC)); 96 % of control (dose: 300.0 mg/kg/injection, schedule: Q01DX001 (ip), vehicle: carboxymethylcellulose (CMC)).

Regarding `CC1=Nc2ccccc2/C1=C\c1c(C)[nH]c2ccccc12`, the T/C was 97 % of control (dose: 25.0 mg/kg/injection, schedule: Q01DX009 (ip), vehicle: Klucel (hydroxypropylcellulose) (HPC)); 97 % of control (dose: 50.0 mg/kg/injection, schedule: Q01DX009 (ip), vehicle: Klucel (hydroxypropylcellulose) (HPC)); 101 % of control (dose: 50.0 mg/kg/injection, schedule: Q01DX009 (ip), vehicle: acetone); 96 % of control under setting [4]; 97 % of control under setting [5]; 96 % of control (dose: 100.0 mg/kg/injection, schedule: Q04DX003 (ip), vehicle: acetone). The T/C runs as follows: under setting [6], 101 % of control; under setting [7], 97 % of control; (dose: 200.0 mg/kg/injection, schedule: Q04DX003 (ip), vehicle: acetone) 99 % of control; under setting [8], 104 % of control.

`Cc1ccc(NC(N)=S)nc1`: the T/C by setting is: (dose: 100.0 mg/kg/injection, schedule: Q04DX003 (ip), vehicle: Klucel (hydroxypropylcellulose) (HPC)) 100 % of control; (dose: 200.0 mg/kg/injection, schedule: Q04DX003 (ip), vehicle: Klucel (hydroxypropylcellulose) (HPC)) 94 % of control; (dose: 400.0 mg/kg/injection, schedule: Q04DX003 (ip), vehicle: Klucel (hydroxypropylcellulose) (HPC)) 99 % of control.

Consider `COc1ccccc1OC(=O)Nc1ccc(S(=O)(=O)NC2CCCCC2)cc1`, for which the T/C is 100 % of control under setting [4], 91 % of control under setting [6] and 94 % of control under setting [8].

With `O=C(NCCCCCCNC(=O)Nc1cccc(C(F)(F)F)c1)Nc1cccc(C(F)(F)F)c1`, the T/C is 97 % of control under setting [5], 92 % of control under setting [7] and 92 % of control under setting [9].

Take `CC(C)(C)C12OC1C(=O)C1(C(C)(C)C)OC1C2=O` (stereo unspecified): the T/C by setting is: under setting [5], 97 % of control; under setting [7], 103 % of control; under setting [9], 105 % of control.

For `C/C(=N\NS(=O)(=O)c1ccc(C)cc1)C1CCSC1` (stereo unspecified), the T/C is, setting by setting: under setting [10], 93 % of control; (dose: 100.0 mg/kg/injection, schedule: Q04DX003 (ip), vehicle: saline with Tween-80) 111 % of control; under setting [11], 101 % of control; (dose: 200.0 mg/kg/injection, schedule: Q04DX003 (ip), vehicle: saline with Tween-80) 98 % of control; under setting [12], 90 % of control; (dose: 400.0 mg/kg/injection, schedule: Q04DX003 (ip), vehicle: saline with Tween-80) 96 % of control.

For `CN(C)C1C=CS(=O)(=O)C1` (stereo unspecified), the T/C (dose: 100.0 mg/kg/injection, schedule: Q01DX001 (ip), vehicle: Klucel (hydroxypropylcellulose) (HPC)) was 106 % of control and the T/C (dose: 200.0 mg/kg/injection, schedule: Q01DX001 (ip), vehicle: Klucel (hydroxypropylcellulose) (HPC)) was 106 % of control.

Take `Cc1cc(Cl)nc2ccc(Cc3ccccc3)cc12`: the T/C was 102 % of control under setting [4], 96 % of control under setting [6] and 103 % of control under setting [8].

In the case of `COc1ccc(NCC(O)CN2CCCC2)cc1` (stereo unspecified), the T/C was 112 % of control under setting [4] and 104 % of control under setting [6].

Consider `O=C(CC(NC(=O)OCc1ccccc1)c1nn[nH]n1)OCc1ccccc1` (stereo unspecified), for which the T/C under setting [10] was 101 % of control, the T/C under setting [11] is 103 % of control and the T/C under setting [12] was 90 % of control.

For the compound `NS(=O)(=O)c1ccc(NC(=O)Nc2ccc(F)cc2)cc1`, the T/C was 99 % of control under setting [1]; 94 % of control and 101 % of control (dose: 100.0 mg/kg/injection, schedule: Q01DX009 (ip), vehicle: carboxymethylcellulose (CMC)); 92 % of control and 100 % of control (dose: 100.0 mg/kg/injection, schedule: Q04DX002 (ip), vehicle: carboxymethylcellulose (CMC)); 93 % of control (dose: 100.0 mg/kg/injection, schedule: Q04DX003 (ip), vehicle: carboxymethylcellulose (CMC)); 96 % of control under setting [2]; 94 % of control and 100 % of control (dose: 200.0 mg/kg/injection, schedule: Q01DX009 (ip), vehicle: carboxymethylcellulose (CMC)). The T/C runs as follows: (dose: 200.0 mg/kg/injection, schedule: Q04DX002 (ip), vehicle: carboxymethylcellulose (CMC)) 100 % of control and 89 % of control; (dose: 200.0 mg/kg/injection, schedule: Q04DX003 (ip), vehicle: carboxymethylcellulose (CMC)) 104 % of control; under setting [3], 99 % of control; (dose: 400.0 mg/kg/injection, schedule: Q01DX009 (ip), vehicle: carboxymethylcellulose (CMC)) 94 % of control and 101 % of control; (dose: 400.0 mg/kg/injection, schedule: Q04DX002 (ip), vehicle: carboxymethylcellulose (CMC)) 100 % of control and 102 % of control; (dose: 400.0 mg/kg/injection, schedule: Q04DX003 (ip), vehicle: carboxymethylcellulose (CMC)) 104 % of control.

The values are drawn from PubChem BioAssay AID248 (DTP/NCI, 2004).
